Experimental data as given in article PMC11350675, “Identifying Cell-Penetrating Peptides for Effectively Delivering Antimicrobial Molecules into Streptococcus suis” (Antibiotics, 2024).
≈ marks a conversion by molar mass, not a printed value. Read-outs that look alike come from different tables or passages of the source. Non-standard residues stand in square brackets, D forms with d. Residues, ends and D or L forms follow the SMILES beside them. Ahx = NCCCCCC(=O)O; βAla = NCCC(=O)O

Experiments:
[1] = tested on: S. suis serotype 2 strain SC070731; type: cell-based, Streptococcus suis
Protocol: The broth microdilution method was employed to determine the MIC values, following a previous study and a recently published protocol with a few modifications. In brief, an overnight S. suis serotype 2 strain SC070731 culture was diluted 100-fold in fresh THB and grown to an OD600nm of 0.6. Subsequently, the bacterial suspension was further diluted 2000-fold in fresh Mueller–Hinton broth (MHB) to a final concentration of approximately 1 × 10^5 CFU/mL. Then, 180 µL of the bacterial solution was transferred into a 96-well plate. Immediately, 20 µL of a 10× peptides, PNAs, or CPP-PNA conjugates working solution was added. As a negative control, an equivalent volume of water was added instead. The plate was then incubated at 37 °C with 5% CO2 for 18 h, and the growth was periodically monitored by measuring the OD595nm every hour using a BioTek ELx800 plate reader. The MIC value was determined as the lowest concentration inhibiting visible growth in the wells (OD595nm < 0.1).

[2] = tested on: S. suis serotype 2 strain SC070731 cells; test: Cellular uptake of FITC-labeled CPPs by flow cytometry; type: cell-based, Streptococcus suis; details: 10 µM FITC-labeled CPP or FITC molecule, 1 h, 37 °C, PBS; flow cytometry, 50,000 events, 488 nm laser
Protocol: S. suis serotype 2 strain SC070731 was streaked onto THA plates and incubated at 37 °C with 5% CO2 for 12 h. A bacterial colony was picked and inoculated overnight in 2 mL of THB at 37 °C. The overnight culture was then diluted 100-fold in fresh THB and grown to an OD600nm of 0.6 (approximately 3 × 10^8 CFU/mL). The obtained culture was washed twice with PBS and resuspended in PBS. Further, 900 µL of the bacterial solution was transferred into a 2 mL tube. Immediately, 100 µL of a 10× FITC-labeled CPPs working solution was added to a final concentration of 10 µM. Controls were prepared using an equivalent volume of water or a 10× FITC molecule solution. The reaction tubes were incubated for one hour at 37 °C and 10 rpm rotation in the dark. […] The fluorescence emitted by the 640 nm laser was used to analyze the cell membrane stained with Alexa Fluor 633-WGA. In contrast, the fluorescence emitted by the 488 nm laser was used to analyze the distribution of FITC-labeled CPPs in bacterial cells. […]
As mentioned, the bacterial cells were treated with FITC-labeled CPPs and fixed with 4% paraformaldehyde. […] Bacterial cells in suspension were analyzed at a 200–300 events/s flow rate, and 50,000 events were recorded for analysis. […] The mean fluorescence intensity of FITC was analyzed using FlowJo^TM v10 software (BD Biosciences). […]

[3] = S. suis serotype 2 strain SC070731, broth microdilution in MHB, approx. 1 × 10^5 CFU/mL, 37 °C, 5% CO2, 18 h, lowest concentration inhibiting visible growth (OD595nm < 0.1)

| Compound | MIC [1, 3] | further results |
| --- | --- | --- |
| N=C(N)NCCC[C@H](NC(=O)CCCCCNC(=O)[C@H](CCCNC(=N)N)NC(=O)[C@H](CCCNC(=N)N)NC(=O)CCCCCNC(=O)[C@H](CCCNC(=N)N)NC(=O)[C@H](CCCNC(=N)N)NC(=O)CCCCCNC(=O)[C@H](CCCNC(=N)N)NC(=O)[C@H](CCCNC(=N)N)NC(=O)CCCCCNC(=O)[C@@H](N)CCCNC(=N)N)C(=O)NCCCCCC(=O)NCCC(N)=O [(RXR)4XB] (H-R[Ahx]RR[Ahx]RR[Ahx]RR[Ahx]R[Ahx][βAla]-NH2) |  | MIC ([1]; 18 h): 4 µM (≈ 7.61 µg/mL) |
| O=C1OC2(c3ccc(O)cc3Oc3cc(O)ccc32)c2ccc(N=C=S)cc21 [FITC molecule] |  | cells clustered in quadrant 4 (FITC-positive), share of total cells [2]: 64.80% |
| N=C(N)NCCC[C@H](NC(=O)CN)C(=O)N[C@@H](CCCCN)C(=O)N[C@@H](CCCCN)C(=O)N[C@@H](CCCNC(=N)N)C(=O)N[C@@H](CCCNC(=N)N)C(=O)N[C@@H](CCC(N)=O)C(=O)N[C@@H](CCCNC(=N)N)C(=O)N[C@@H](CCCNC(=N)N)C(=O)N[C@@H](CCCNC(=N)N)C(=O)N[C@@H](Cc1ccc(O)cc1)C(=O)N[C@@H](CCCCN)C(N)=O [HIV-1 TAT] | >128 µM |  |
| Free PNA: gyrA-specific antisense peptide nucleic acid, ttgcattatatg, without carrier peptide (TTGCATTATATG; all peptide nucleic acid (PNA); Unconjugated PNA, no carrier peptide) | >32 µM |  |
